The values below come from patent US20260374756A1, “HETEROCYCLIC COMPOUNDS AS INHIBITORS OF MONOACYLGLYCEROL LIPASE (MAGL)” (Hoffmann-La Roche Inc., priority 2022, published 2026).

This assay deals with T1, hMAGL (Homo sapiens, UniProt Q99685).
T1 sequence (Q99685 1-303): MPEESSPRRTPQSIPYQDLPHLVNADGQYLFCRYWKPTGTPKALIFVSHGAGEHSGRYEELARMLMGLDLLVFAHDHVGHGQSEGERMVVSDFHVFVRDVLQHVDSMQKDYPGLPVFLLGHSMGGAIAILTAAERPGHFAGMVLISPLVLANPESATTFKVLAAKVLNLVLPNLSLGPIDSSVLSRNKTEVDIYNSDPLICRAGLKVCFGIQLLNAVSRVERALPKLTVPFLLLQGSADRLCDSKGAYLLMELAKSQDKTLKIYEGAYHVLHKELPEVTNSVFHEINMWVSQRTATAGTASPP
As to the kind of experiment: 2-AG assay: MAGL inhibition, hydrolysis of 2-arachidonoylglycerol to arachidonic acid followed by mass spectrometry. In kind it is biochemical. Summed up:
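Read-out is LC-MS/MS of arachidonic acid released from 2-arachidonoylglycerol (8 μM final), normalised to d8-arachidonic acid internal standard after acetonitrile quench. Enzyme […] and compound were pre-mixed 15 min, then reacted 30 min, both at RT, in Tris/EDTA buffer with 0.01% Tween-20 and 2.5% DMSO.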

SMILES strings stand for the structures. pIC50: −log10 of the molar value.

In general, pIC50 refers to the negative decadic logarithm of the IC50, by convention in mol/L. Low values mean a high IC50, high ones a low IC50. In turn, `Cc1cc(C(F)(F)F)n(CC2CC3(C2)CN(C(=O)N2CC4(CC(n5cnc(C6(O)CC6)n5)C4)C2)C3)n1` [Example 73] gave a negative-log IC50 (pIC50) of 6.96.

As for `O=C(N1CC2(CC(n3cnc(C(F)(F)F)n3)C2)C1)N1CC2(CN(Cc3cc(C(F)(F)F)no3)C2)C1` [Example 183, [6-[[3-(trifluoromethyl)isoxazol-5-yl]methyl]-2,6-diazaspiro[3.3]heptan-2-yl]-[6-[3-(trifluoromethyl)-1,2,4-triazol-1-yl]-2-azaspiro[3.3]heptan-2-yl]methanone], the pIC50 was 7.55.

The molecule `O=C(N1CC2(CC(Cc3cnn(CC(F)(F)F)n3)C2)C1)N1CC2(CC(n3cnc(C(F)(F)F)n3)C2)C1` [Example 340, [6-[[2-(2,2,2-trifluoroethyl)triazol-4-yl]methyl]-2-azaspiro[3.3]heptan-2-yl]-[6-[3-(trifluoromethyl)-1,2,4-triazol-1-yl]-2-azaspiro[3.3]heptan-2-yl]methanone] showed a pIC50 of 8.44.

As to `O=C(N1CC2(CCN(Cc3cc(C(F)(F)F)sn3)CC2)C1)N1CC2(CC(n3cnc(C4(O)CC4)n3)C2)C1` [Example 48, [6-[3-(1-hydroxycyclopropyl)-1,2,4-triazol-1-yl]-2-azaspiro[3.3]heptan-2-yl]-[7-[[5-(trifluoromethyl)isothiazol-3-yl]methyl]-2,7-diazaspiro[3.5]nonan-2-yl]methanone], the pIC50 is 7.37.

The molecule `O=C(N1CC2(CC(n3cnc(C4CC4)n3)C2)C1)N1CC2(CN(Cc3nnnn3CC(F)(F)F)C2)C1` [Example 198, [6-(3-cyclopropyl-1,2,4-triazol-1-yl)-2-azaspiro[3.3]heptan-2-yl]-[6-[[1-(2,2,2-trifluoroethyl)tetrazol-5-yl]methyl]-2,6-diazaspiro[3.3]heptan-2-yl]methanone] had a negative logarithm of the IC50 (pIC50) of 7.15.

On to `O=C(N1CC2(CCN(Cc3ncc(C(F)F)s3)CC2)C1)N1CC2(CC(n3cnc(C(F)(F)F)n3)C2)C1` [Example 31, [7-[[5-(difluoromethyl)thiazol-2-yl]methyl]-2,7-diazaspiro[3.5]nonan-2-yl]-[6-[3-(trifluoromethyl)-1,2,4-triazol-1-yl]-2-azaspiro[3.3]heptan-2-yl]methanone], for which the negative logarithm of the IC50 (pIC50) is 7.88.

`O=C(N1CC2(CC(Cc3n[nH]c(C(F)(F)F)n3)C2)C1)N1CC2(CC(n3cnc(C(F)F)n3)C2)C1` [Example 320, [6-[3-(difluoromethyl)-1,2,4-triazol-1-yl]-2-azaspiro[3.3]heptan-2-yl]-[6-[[5-(trifluoromethyl)-1H-1,2,4-triazol-3-yl]methyl]-2-azaspiro[3.3]heptan-2-yl]methanone]: the negative logarithm of the IC50 (pIC50) was 7.28.

The molecule `Cn1nc(CN2CC3(C2)CN(C(=O)N2CC4(CC(n5cnc(C6CC6)n5)C4)C2)C3)cc1C(F)(F)F` [Example 162, [6-(3-cyclopropyl-1,2,4-triazol-1-yl)-2-azaspiro[3.3]heptan-2-yl]-[6-[[1-methyl-5-(trifluoromethyl)pyrazol-3-yl]methyl]-2,6-diazaspiro[3.3]heptan-2-yl]methanone] had a pIC50 of 8.28.

On to `O=C(N1CC2(CC(n3cnc(C(F)(F)F)n3)C2)C1)N1CC2(CN(Cc3nc(C4CC4)ns3)C2)C1` [Example 43, [6-[(3-cyclopropyl-1,2,4-thiadiazol-5-yl)methyl]-2,6-diazaspiro[3.3]heptan-2-yl]-[6-[3-(trifluoromethyl)-1,2,4-triazol-1-yl]-2-azaspiro[3.3]heptan-2-yl]methanone], for which the pIC50 is 7.64.

In turn, `O=C(N1CC2(CC(Cc3cc(C(F)F)n[nH]3)C2)C1)N1CC2(CC(n3cnc(C4CC4)n3)C2)C1` [Example 296, [6-(3-cyclopropyl-1,2,4-triazol-1-yl)-2-azaspiro[3.3]heptan-2-yl]-[6-[[3-(difluoromethyl)-1H-pyrazol-5-yl]methyl]-2-azaspiro[3.3]heptan-2-yl]methanone] gave a pIC50 of 9.77.

`O=C(N1CC2(CC(n3cnc(C(F)(F)F)n3)C2)C1)N1CC2(CN(Cc3nnc(C(F)(F)F)s3)C2)C1` [Example 82, [6-[[5-(trifluoromethyl)-1,3,4-thiadiazol-2-yl]methyl]-2,6-diazaspiro[3.3]heptan-2-yl]-[6-[3-(trifluoromethyl)-1,2,4-triazol-1-yl]-2-azaspiro[3.3]heptan-2-yl]methanone] showed a pIC50 of 6.84.

Molecule `Cc1cc(C(F)F)n(CC2CC3(C2)CN(C(=O)N2CC4(CC(n5cnc(C(F)(F)F)n5)C4)C2)C3)n1` [Example 91, [6-[[5-(difluoromethyl)-3-methyl-pyrazol-1-yl]methyl]-2-azaspiro[3.3]heptan-2-yl]-[6-[3-(trifluoromethyl)-1,2,4-triazol-1-yl]-2-azaspiro[3.3]heptan-2-yl]methanone] had a pIC50 of 8.99.

`Cn1cc(CN2CC3(C2)CN(C(=O)N2CC4(CC(n5cnc(C(F)(F)F)n5)C4)C2)C3)c(C(F)(F)F)n1` [Example 191, [6-[[1-methyl-3-(trifluoromethyl)pyrazol-4-yl]methyl]-2,6-diazaspiro[3.3]heptan-2-yl]-[6-[3-(trifluoromethyl)-1,2,4-triazol-1-yl]-2-azaspiro[3.3]heptan-2-yl]methanone] showed a pIC50 of 6.81.

Regarding `O=C(N1CC2(CC(Cc3cn(C4CC4)nc3C(F)(F)F)C2)C1)N1CC2(CC(n3cnc(C4CC4)n3)C2)C1` [Example 62, [6-(3-cyclopropyl-1,2,4-triazol-1-yl)-2-azaspiro[3.3]heptan-2-yl]-[6-[[1-cyclopropyl-3-(trifluoromethyl)pyrazol-4-yl]methyl]-2-azaspiro[3.3]heptan-2-yl]methanone], the negative logarithm of the IC50 (pIC50) is 9.85.

In turn, `O=C(N1CC2(CC(Cc3nc(C(F)(F)F)c[nH]3)C2)C1)N1CC2(CC(n3cnc(C(F)F)n3)C2)C1` [Example 326, [6-[3-(difluoromethyl)-1,2,4-triazol-1-yl]-2-azaspiro[3.3]heptan-2-yl]-[6-[[4-(trifluoromethyl)-1H-imidazol-2-yl]methyl]-2-azaspiro[3.3]heptan-2-yl]methanone] gave a pIC50 of 7.65.

In turn, `O=C(N1CC2(CC(Cn3cnc(C(F)(F)F)c3)C2)C1)N1CC2(CC(n3cnc(C4(O)CC4)n3)C2)C1` [Example 41, [6-[3-(1-hydroxycyclopropyl)-1,2,4-triazol-1-yl]-2-azaspiro[3.3]heptan-2-yl]-[6-[[4-(trifluoromethyl)imidazol-1-yl]methyl]-2-azaspiro[3.3]heptan-2-yl]methanone] gave a pIC50 of 7.03.

For the molecule `CC(C)(C)c1coc(CN2CC3(C2)CN(C(=O)N2CC4(CC(n5cnc(C6CC6)n5)C4)C2)C3)n1` [Example 98, [6-[(4-tert-butyloxazol-2-yl)methyl]-2,6-diazaspiro[3.3]heptan-2-yl]-[6-(3-cyclopropyl-1,2,4-triazol-1-yl)-2-azaspiro[3.3]heptan-2-yl]methanone], the negative-log IC50 (pIC50) was 9.02.

The molecule `Cc1c(CN2CC3(C2)CN(C(=O)N2CC4(CC(n5cnc(C(F)(F)F)n5)C4)C2)C3)cnn1CC(F)(F)F` [Example 114, [6-[[5-methyl-1-(2,2,2-trifluoroethyl)pyrazol-4-yl]methyl]-2,6-diazaspiro[3.3]heptan-2-yl]-[6-[3-(trifluoromethyl)-1,2,4-triazol-1-yl]-2-azaspiro[3.3]heptan-2-yl]methanone] showed a negative-log IC50 (pIC50) of 6.51.
